Assay results as given in patent US20150150893A1, “ANDROGRAPHOLIDE ANALOGS AND THEIR USE FOR MEDICATION” (LIAONING LIFENG SCIENTIFIC & TECHNOLOGY DEVELOPMENT COMPANY …, priority 2012, published 2015).

Assays:
Format in all cases: cell-based
[1] = test system: Japanese encepahalitis virus; conditions: read-out: In-Vitro Antiviral Screening Result (EC50) C
[2] = test system: Rift Valley fever virus; assay: microbe, parasite or virus in culture; conditions: read-out: In-Vitro Antiviral Screening Result (EC50) E
[3] = test system: SARS coronavirus; assay: microbe, parasite or virus in culture; conditions: Severe acute respiratory syndrome coronavirus, read-out: In-Vitro Antiviral Screening Result (EC50) F
[4] = test system: Venezuelan equine encephalitis virus; assay: microbe, parasite or virus in culture; conditions: read-out: In-Vitro Antiviral Screening Result (EC50) G
[5] = test system: Influenza A virus H1N1; assay: microbe, parasite or virus in culture; conditions: H1N1, read-out: In-Vitro Antiviral Screening Result (EC50) H
[6] = test system: many virus; assay: Antivirus studies in vitro, summary over the virus panel; conditions: read-out: EC50 against many virus
Description: compounds were diluted to 20 mg/mL in DMSO then prepared in for log 10 dilutions of 100 μg/mL down to 0.1 μg/mL) in MEM solution with 50 μg/mL gentamicin and 2% FBS. Each dilution was added to 5 wells of a 96-well plate with 80-100% confluent cells. Three wells of each dilution were infected with virus, and two wells remained uninfected as toxicity controls. The multiplicity of infection (MOI) was as low as possible to achieve CPE within 3-5 days of incubation. A known active compound was tested in parallel as a control. After untreated virus control wells reached maximum cytopathic effect (CPE), each well was scored microscopically. Plates were then stained with neutral red dye for approximately 2 hours, then supernatant dye was removed from the wells and the incorporated dye was extracted in 50:50 Sorensen citrate buffer/ethanol, then the optical density was read on a spectrophotometer.

SMILES	EC50 [1] [µg/mL]	EC50 [2] [µg/mL]	EC50 [3] [µg/mL]	EC50 [4] [µg/mL]	EC50 [5] [µg/mL]	EC50 [6] [µg/mL]
CC(NC1CC2[C@](C)(CC[C@@H](O)[C@@]2(C)CO)C(/C=C/C2=CC(=C\c3cnc(N4CCN(C)CC4)nc3)/OC2=O)C12CO2)C(=O)NC1=NCC=N1 (stereo partly drawn) [Example 23, 7-((2-((4H-imidazol-2-yl)amino)-1-oxopropan-2-yl)amino)-11,12-dedihydro-14-deoxy-(E)-15-((2-(4-methylpiperazin-1-yl)pyrimidin-5-yl)methylene)-8,17-epoxyandrographolide]	< 50	< 50	< 50	< 50	> 100	< 50
C=C1CCC2[C@](C)(CC[C@@H](O)[C@@]2(C)CO)C1/C=C/C1=CC(=C\c2cn(C)c3nc(N)ncc23)/OC1=O (stereo partly drawn) [Example 46, 11,12-dedihydro-14-deoxy-(E)-15-((2-amino-7-methyl-7H-pyrrolo[2,3-d]pyrimidin-5-yl)methylene)andrographolide]	< 100	< 50	< 50	< 100	< 100	< 50
CCN(CC)c1ccc(/C=C2C=C(/C=C/C3C4(CCC5[C@]3(C)CC[C@@H](O)[C@@]5(C)CO)CO4)C(=O)O\2)c(O)c1 (stereo partly drawn) [Example 66]	< 50	< 100	< 100	< 50	< 100	< 50
C=C1CCC2[C@](C)(CC[C@@H](O)[C@@]2(C)CO)C1/C=C/C1=CC(=C\c2ccc(N(C)C)cc2O)/OC1=O (stereo partly drawn) [Example 44]	> 100	> 100	< 50	> 100	< 100	< 50
C=C1CCC2[C@](C)(CC[C@@H](O)[C@@]2(C)CO)C1/C=C/C1=CC(=C\c2ccc(-n3ccnc3)cc2)/OC1=O (stereo partly drawn) [Example 79, 11,12-dedihydro-14-deoxy-(E)-15-(4-(1H-imidazol-1-yl)benzylidene)andrographolide]	< 50	< 50	< 50	< 50	< 50	< 50
